Experimental data taken from patent US20060154923A1, “N-phenyl-3-cyclopropylpyrazole-4-carbonitriles as ectoparasiticidal agents” (priority 2002, published 2006).
Read-outs that look alike come from different tables or passages of the source.

Key:
Format in all cases: in vivo
[1] = test system: newly emerged larvae of Lucilia sericata, blowfly; assay: Efficacy against blowfly larvae, treated paper/serum bioassay; conditions: blowfly larvae; for mortality at 0.2 ppm / mortality at 2 ppm / mortality at 20 ppm: Lucilia sericata
Protocol: Evaluation of Efficacy of Test Compounds Against Blowfly Larvae
The efficacy of a test compound against newly emerged larvae of Lucilia sericata, blowfly, is evaluated using a treated paper/serum bioassay. In this evaluation, a solution of test compound in acetone is applied to a filter paper disc and the disc is allowed to dry. Bovine serum and about 20 newly emerged blowfly larvae are added to the treated paper disc and the mortality is assessed at 24 h and 48 h. The data are averaged.

[2] = test system: Ctenocephatides felis, adult cat fleas; assay: Contact activity against adult cat fleas, coated glass vial assay; conditions: for % Mortality 4 h: Conc. 2 ug/cm2, 4 h; for % Mortality 24 h: Conc. 2 ug/cm2, 24 h
Protocol: Evaluation of the Efficacy of Test Compounds Against Adult Cat Fleas
(§1) The contact activity of a test compound against Ctenocephatides felis, adult cat fleas, is evaluated in a coated, glass vial assay. In this evaluation, a solution of test compound in acetone is allowed to dry on the interior surface of a 20 mL vial. Ten unfed adult cat fleas are added to the treated vial and mortality is assessed periodically for up to 48 h. All treatments are replicated 2 times. The data are averaged.

[3] = test system: Rhipacephalus sanguineus, adult ticks; assay: Contact activity against adult ticks, coated glass vial assay
Protocol: Evaluation of the Efficacy of Test Compounds Against Adult Ticks
as §1, with “Rhipacephalus sanguineus,” for “Ctenocephatides felis,”, “ticks,” for “cat fleas,”, “coated” for “coated,”, “Five” for “Ten”, “ticks” for “cat fleas”

SMILES | % Mortality 24 h ([1]; Conc. 20.0 ppm, 24 h) [%] | % Mortality 48 h ([1]; Conc. 20.0 ppm, 48 h) [%] | % Mortality 4 h [2] [%] | % Mortality 24 h [2] [%] | % Mortality 24 h ([1]; Conc. 10.0 ppm, 24 h) [%] | % Mortality 24 h ([1]; Conc. 2.0 ppm, 24 h) [%] | % Mortality 48 h ([1]; Conc. 2.0 ppm, 48 h) [%] | also measured
N#Cc1cn(-c2c(Cl)cc(Cl)cc2Cl)nc1C1(c2ccc(Cl)cc2Cl)CC1 [Example 18] | 0 | 0 | – | – | – | – | – | –
CC1(c2nn(-c3c(Cl)cc(C(F)(F)F)cc3Cl)c(N)c2C#N)CC1(Cl)Cl (stereo not shown) [Example 19, 5-Amino-3-(2,2-dichloro-1-methylcyclopropyl)-1-[2,6-dichloro-4-(trifluoromethyl)phenyl]-1H-pyrazole-4-carbonitrile] | – | – | 0 | 10 | – | – | – | % Mortality 4 h ([3]; Conc. 0.78 ug/cm2, 4 h): 0%; % Mortality 24 h ([3]; Conc. 0.78 ug/cm2, 24 h): 20%; % Mortality 4 h ([3]; Conc. 7.80 ug/cm2, 4 h): 40%; % Mortality 24 h ([3]; Conc. 7.80 ug/cm2, 24 h): 70%; mortality at 0.2 ppm ([1]; Conc. 0.2 ppm, 24 h, read-out: % Mortality 24 h): 0%; mortality at 0.2 ppm ([1]; Conc. 0.2 ppm, 48 h, read-out: % Mortality 48 h): 0%; mortality at 2 ppm ([1]; Conc. 2.0 ppm, 24 h, read-out: % Mortality 24 h): 100%; mortality at 2 ppm ([1]; Conc. 2.0 ppm, 48 h, read-out: % Mortality 48 h): 100%; mortality at 20 ppm ([1]; Conc. 20.0 ppm, 24 h, read-out: % Mortality 24 h): 75%; mortality at 20 ppm ([1]; Conc. 20.0 ppm, 48 h, read-out: % Mortality 48 h): 95%
N#Cc1c(C2CC2)nn(-c2c(Cl)cc(C(F)(F)F)cc2Cl)c1N [Example 24] | – | – | – | – | 0 | – | – | % Mortality 48 h ([1]; Conc. 10.0 ppm, 48 h): 0%
CC1(c2nn(-c3c(Cl)cc(Cl)cc3Cl)c(N)c2C#N)CC1(Cl)Cl (stereo not shown) [Example 25] | 5 | 5 | – | – | 0 | – | – | % Mortality 48 h ([1]; Conc. 10.0 ppm, 48 h): 0%
N#Cc1c(C2CC2)nn(-c2c(Cl)cc(C(F)(F)F)cc2Cl)c1Cl [Example 26] | 97 | 97 | 100 | 100 | 0 | 0 | 0 | % Mortality 48 h ([1]; Conc. 10.0 ppm, 48 h): 50%
CC1(c2nn(-c3c(Cl)cc(Cl)cc3Cl)c(Cl)c2C#N)CC1(Cl)Cl (stereo not shown) [Example 27] | 100 | 100 | 10 | 100 | – | 100 | 100 | % Mortality 24 h ([1]; Conc. 0.2 ppm, 24 h): 0%; % Mortality 48 h ([1]; Conc. 0.2 ppm, 48 h): 0%
CC1(c2nn(-c3c(Cl)cc(Cl)cc3Cl)c(Br)c2C#N)CC1(Cl)Cl (stereo not shown) [Example 28] | 100 | 100 | 0 | 10 | – | 95 | 100 | % Mortality 24 h ([1]; Conc. 0.2 ppm, 24 h): 0%; % Mortality 48 h ([1]; Conc. 0.2 ppm, 48 h): 0%
CC1(c2nn(-c3c(Cl)cc(C(F)(F)F)cc3Cl)c([N+](=O)[O-])c2C#N)CC1(Cl)Cl (stereo not shown) [Example 30] | 20 | 20 | 0 | 100 | 10 | – | – | % Mortality 48 h ([1]; Conc. 10.0 ppm, 48 h): 50%
CCN(CC)c1c(C#N)c(C2(C)CC2(Cl)Cl)nn1-c1c(Cl)cc(C(F)(F)F)cc1Cl (stereo not shown) [Example 33] | 100 | 100 | 20 | 100 | – | 90 | 90 | % Mortality 24 h ([1]; Conc. 0.2 ppm, 24 h): 0%; % Mortality 48 h ([1]; Conc. 0.2 ppm, 48 h): 0%
CC(C)(C)C(=O)Nc1c(C#N)c(C2(C)CC2(Cl)Cl)nn1-c1c(Cl)cc(C(F)(F)F)cc1Cl (stereo not shown) [Example 34] | 0 | 0 | – | – | – | – | – | –
CC1(c2nn(-c3c(Cl)cc(C(F)(F)F)cc3Cl)c(N(C(=O)C3CC3)C(=O)C3CC3)c2C#N)CC1(Cl)Cl (stereo not shown) [Example 35] | 0 | 0 | – | – | – | – | – | –
CC1(c2nn(-c3c(Cl)cc(C(F)(F)F)cc3Cl)c(NC(=O)C3CC3)c2C#N)CC1(Cl)Cl (stereo not shown) [Example 36] | 10 | 10 | – | – | 0 | – | – | –
COC=Nc1c(C#N)c(C2(C)CC2(Cl)Cl)nn1-c1c(Cl)cc(C(F)(F)F)cc1Cl (stereo not shown) [Example 37] | 100 | 100 | 10 | 100 | – | 0 | 0 | –
CN(C)C=Nc1c(C#N)c(C2(C)CC2(Cl)Cl)nn1-c1c(Cl)cc(C(F)(F)F)cc1Cl (stereo not shown) [Example 38] | 0 | 0 | – | – | – | – | – | –
